Data from ChEMBL document CHEMBL5230100, “Novel quinazoline-based EGFR kinase inhibitors: A review focussing on SAR and molecular docking studies (2015-2019)” (Eur J Med Chem, 2020).
Values joined by “and” are separate entries in the source; they are usually repeats but may differ in a detail not shown here. Identical values can stand only once. Values belong to the molecule of their own block, whether it stands above or below them.

How the values were obtained:
[1] = AUClast in Sprague-Dawley rat plasma at 10 mg/kg, iv by LC-MS/MS analysis; type: ADME, organism-based; set-up: dose 10 mg/kg, route iv
PC-9 = test: cells; type: functional, cell-based; conditions: Homo sapiens, PC-9, 72 h
Description: Antiproliferative activity against human PC-9 cells assessed as cell growth inhibition incubated for 72 hrs by SRB assay

A-431 [2] = test: Antiproliferative activity against human A-431 cells assessed as cell growth inhibition incubated for 72 hrs by SRB assay; type: functional, cell-based; conditions: A-431, 72 h
[3] = AUC (0 to infinity) in Sprague-Dawley rat plasma at 10 mg/kg, iv by LC-MS/MS analysis; type: ADME, organism-based; set-up: dose 10 mg/kg, route iv
[4] = MRT (0 to 24 hrs) in Sprague-Dawley rat plasma at 10 mg/kg, iv by LC-MS/MS analysis; type: ADME, organism-based
[5] = molecular target: Epidermal growth factor receptor (Homo sapiens, UniProt P00533, 746-750DEL)
cells = type: functional, cell-based; conditions: Homo sapiens, HBE, 72 h
Description: Antiproliferative activity against human HBE cells assessed as cell growth inhibition incubated for 72 hrs by MTT assay

A549 [6] = test: cells; type: functional, cell-based; conditions: Homo sapiens, A549, 72 h
Description: Antiproliferative activity against human A549 cells assessed as cell growth inhibition incubated for 72 hrs by MTT assay

A-431 [7] = test: cells; type: functional, cell-based; conditions: Homo sapiens, A-431, 72 h
Description: Antiproliferative activity against human A-431 cells assessed as cell growth inhibition incubated for 72 hrs by MTT assay

[8] = molecular target: T1, Receptor tyrosine-protein kinase erbB-2 (Homo sapiens, UniProt P04626); test: Inhibition of HER2 (unknown origin) incubated for 1 hrs by ELISA assay
[9] = molecular target: T2, Epidermal growth factor receptor (Homo sapiens, UniProt P00533); test: Inhibition of EGFR (unknown origin) incubated for 1 hrs by ELISA assay
MDA-MB-231 [10] = test: Anticancer activity against human MDA-MB-231 cells assessed as cell growth inhibition incubated for 24 hrs by MTT assay; type: functional, cell-based; conditions: MDA-MB-231, 24 h
MDA-MB-231 [11] = test: Cytotoxicity against human MDA-MB-231 assessed as radio sensitizing effect incubated for 24 hrs in presence of gamma irradiation by MTT assay; type: functional
HL-60 = test: Antiproliferative activity against human HL-60 cells assessed as cell growth inhibition incubated for 72 hrs by MTT assay; type: functional, cell-based
[12] = molecular target: T2, Epidermal growth factor receptor
[13] = molecular target: T1, Receptor tyrosine-protein kinase erbB-2; test: Inhibition of human HER2
HT-29 [14] = test: Antiproliferative activity against human HT-29 cells assessed as cell growth inhibition incubated for 72 hrs by MTT assay; type: functional, cell-based
K562 = test: Antiproliferative activity against human K562 cells assessed as cell growth inhibition incubated for 72 hrs by MTT assay; type: functional, cell-based; conditions: K562, 72 h
MCF7 = test: Antiproliferative activity against human MCF7 cells assessed as cell growth inhibition incubated for 72 hrs by MTT assay; type: functional, cell-based; conditions: MCF7, 72 h
[15] = molecular target: T3, Vascular endothelial growth factor receptor 2 (Homo sapiens, UniProt P35968)
Description: Inhibition of VEGFR2 (unknown origin)

MRC5 = test: Antiproliferative activity against human MRC5 cells assessed as cell growth inhibition incubated for 72 hrs by MTT assay; type: functional, cell-based; conditions: MRC5, 72 h
A549 [16] = test: Antiproliferative activity against human A549 cells assessed as cell growth inhibition incubated for 72 hrs under hypoxia condition by SRB assay; type: functional, cell-based; conditions: A549, 72 h
HT-29 [17] = test: Antiproliferative activity against human HT-29 cells assessed as cell growth inhibition incubated for 72 hrs under hypoxia condition by SRB assay; type: functional, cell-based; conditions: HT-29, 72 h
A549 [18] = test: Antiproliferative activity against human A549 cells assessed as cell growth inhibition incubated for 72 hrs under normoxia condition by SRB assay; type: functional, cell-based; conditions: A549, 72 h
A549 [19] = test: cells; conditions: Homo sapiens
Description: Antiproliferative activity against human A549 cells assessed as cell growth inhibition by MTT assay

HT-29 [20] = test: Antiproliferative activity against human HT-29 cells assessed as cell growth inhibition incubated for 72 hrs under normoxia condition by SRB assay; type: functional, cell-based; conditions: HT-29, 72 h
MDA-MB-231 [21] = test: cells; conditions: Homo sapiens, MDA-MB-231, 72 h
Description: Antiproliferative activity against human MDA-MB-231 cells assessed as cell growth inhibition incubated for 72 hrs by MTT assay

[22] = molecular target: T3, Vascular endothelial growth factor receptor 2; remark: listed apart in the source
NCI-H460 = test: Antiproliferative activity against human NCI-H460 cells assessed as cell growth inhibition incubated for 72 hrs by MTT assay; type: functional, cell-based; conditions: NCI-H460, 72 h
[23] = molecular target: T2, Epidermal growth factor receptor; test: Inhibition of human EGFR incubated for 1 hrs in presence of ATP by ELISA assay
A549 [24] = test: Anticancer activity against human A549 cells assessed as cell growth inhibition incubated for 24 hrs by MTT assay; type: functional, cell-based; conditions: A549, 24 h
[25] = molecular target: T1, Receptor tyrosine-protein kinase erbB-2
CNE = test: cells; type: functional, cell-based; conditions: Homo sapiens, 48 h
Description: Antiproliferative activity against human CNE cells assessed as cell growth inhibition incubated for 48 hrs by MTT assay

HepG2 = test: cells; type: functional, cell-based; conditions: Homo sapiens, HepG2, 48 h
Description: Antiproliferative activity against human HepG2 cells assessed as cell growth inhibition incubated for 48 hrs by MTT assay

A549 [26] = test: cells; type: functional, cell-based; conditions: Homo sapiens, A549, 48 h
Description: Antiproliferative activity against human A549 cells assessed as cell growth inhibition incubated for 48 hrs by MTT assay

SK-OV-3 = test: cells; type: functional, cell-based; conditions: Homo sapiens, SK-OV-3, 48 h
Description: Antiproliferative activity against human SK-OV-3 cells assessed as cell growth inhibition incubated for 48 hrs by MTT assay

MDA-MB-231 [27] = test: Antiproliferative activity against human MDA-MB-231 cells assessed as cell growth inhibition incubated for 48 hrs by MTT assay; type: functional, cell-based; conditions: MDA-MB-231, 48 h
A549 [28] = test: Radiosensitizing activity against human A549 cells assessed as radiosensitization ratio by MTT assay; type: functional
SW480 = test: Antiproliferative activity against human SW480 cells assessed as cell growth inhibition by MTT assay; type: functional, cell-based
A-431 [29] = test: Antiproliferative activity against human A-431 cells assessed as cell growth inhibition by MTT assay; type: functional, cell-based
NCI-H1975 = test: Antiproliferative activity against human NCI-H1975 cells assessed as cell growth inhibition by MTT assay; type: functional, cell-based
[30] = Half life in human liver microsomes by LC-MS/MS analysis; type: ADME
[31] = Volume of distribution at steady state in Sprague-Dawley rat at 10 mg/kg, iv by LC-MS/MS analysis; type: ADME, organism-based; conditions: in vivo
[32] = Half life in Sprague-Dawley rat plasma at 10 mg/kg, iv by LC-MS/MS analysis; type: ADME, organism-based; conditions: in vivo

T1 sequence (P04626 whole entry): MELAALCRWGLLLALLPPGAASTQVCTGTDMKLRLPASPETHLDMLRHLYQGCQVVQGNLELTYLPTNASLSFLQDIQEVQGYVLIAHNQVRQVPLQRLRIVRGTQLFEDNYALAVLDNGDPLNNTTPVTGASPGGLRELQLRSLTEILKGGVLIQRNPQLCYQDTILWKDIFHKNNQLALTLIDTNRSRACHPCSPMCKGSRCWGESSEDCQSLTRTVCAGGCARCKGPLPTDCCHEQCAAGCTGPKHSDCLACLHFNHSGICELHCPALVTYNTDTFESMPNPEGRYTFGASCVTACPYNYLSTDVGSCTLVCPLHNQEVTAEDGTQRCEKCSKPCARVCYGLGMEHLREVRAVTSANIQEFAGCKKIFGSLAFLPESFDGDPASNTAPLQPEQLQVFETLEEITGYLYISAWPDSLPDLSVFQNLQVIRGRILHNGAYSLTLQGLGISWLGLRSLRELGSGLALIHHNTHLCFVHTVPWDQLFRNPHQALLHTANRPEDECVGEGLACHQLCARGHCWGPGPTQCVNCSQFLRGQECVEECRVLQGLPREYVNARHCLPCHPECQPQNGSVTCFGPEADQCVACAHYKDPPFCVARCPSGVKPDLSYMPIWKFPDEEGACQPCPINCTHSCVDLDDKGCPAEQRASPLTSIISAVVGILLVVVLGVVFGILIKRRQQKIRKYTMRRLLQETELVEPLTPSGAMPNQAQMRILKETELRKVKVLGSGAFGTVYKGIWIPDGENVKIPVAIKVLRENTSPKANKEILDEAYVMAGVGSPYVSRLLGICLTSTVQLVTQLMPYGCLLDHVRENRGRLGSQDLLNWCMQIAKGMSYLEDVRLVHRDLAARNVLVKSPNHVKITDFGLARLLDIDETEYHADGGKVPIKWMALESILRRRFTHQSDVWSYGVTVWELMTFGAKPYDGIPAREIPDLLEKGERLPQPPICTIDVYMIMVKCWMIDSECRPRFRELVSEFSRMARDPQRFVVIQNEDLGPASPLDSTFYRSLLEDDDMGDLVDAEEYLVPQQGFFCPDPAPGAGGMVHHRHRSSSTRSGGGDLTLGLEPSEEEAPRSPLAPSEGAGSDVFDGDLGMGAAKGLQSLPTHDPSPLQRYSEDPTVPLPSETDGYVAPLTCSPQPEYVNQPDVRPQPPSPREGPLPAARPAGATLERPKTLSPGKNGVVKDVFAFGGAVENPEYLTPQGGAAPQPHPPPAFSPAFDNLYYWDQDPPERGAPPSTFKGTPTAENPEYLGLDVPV
T2 sequence (P00533 whole entry): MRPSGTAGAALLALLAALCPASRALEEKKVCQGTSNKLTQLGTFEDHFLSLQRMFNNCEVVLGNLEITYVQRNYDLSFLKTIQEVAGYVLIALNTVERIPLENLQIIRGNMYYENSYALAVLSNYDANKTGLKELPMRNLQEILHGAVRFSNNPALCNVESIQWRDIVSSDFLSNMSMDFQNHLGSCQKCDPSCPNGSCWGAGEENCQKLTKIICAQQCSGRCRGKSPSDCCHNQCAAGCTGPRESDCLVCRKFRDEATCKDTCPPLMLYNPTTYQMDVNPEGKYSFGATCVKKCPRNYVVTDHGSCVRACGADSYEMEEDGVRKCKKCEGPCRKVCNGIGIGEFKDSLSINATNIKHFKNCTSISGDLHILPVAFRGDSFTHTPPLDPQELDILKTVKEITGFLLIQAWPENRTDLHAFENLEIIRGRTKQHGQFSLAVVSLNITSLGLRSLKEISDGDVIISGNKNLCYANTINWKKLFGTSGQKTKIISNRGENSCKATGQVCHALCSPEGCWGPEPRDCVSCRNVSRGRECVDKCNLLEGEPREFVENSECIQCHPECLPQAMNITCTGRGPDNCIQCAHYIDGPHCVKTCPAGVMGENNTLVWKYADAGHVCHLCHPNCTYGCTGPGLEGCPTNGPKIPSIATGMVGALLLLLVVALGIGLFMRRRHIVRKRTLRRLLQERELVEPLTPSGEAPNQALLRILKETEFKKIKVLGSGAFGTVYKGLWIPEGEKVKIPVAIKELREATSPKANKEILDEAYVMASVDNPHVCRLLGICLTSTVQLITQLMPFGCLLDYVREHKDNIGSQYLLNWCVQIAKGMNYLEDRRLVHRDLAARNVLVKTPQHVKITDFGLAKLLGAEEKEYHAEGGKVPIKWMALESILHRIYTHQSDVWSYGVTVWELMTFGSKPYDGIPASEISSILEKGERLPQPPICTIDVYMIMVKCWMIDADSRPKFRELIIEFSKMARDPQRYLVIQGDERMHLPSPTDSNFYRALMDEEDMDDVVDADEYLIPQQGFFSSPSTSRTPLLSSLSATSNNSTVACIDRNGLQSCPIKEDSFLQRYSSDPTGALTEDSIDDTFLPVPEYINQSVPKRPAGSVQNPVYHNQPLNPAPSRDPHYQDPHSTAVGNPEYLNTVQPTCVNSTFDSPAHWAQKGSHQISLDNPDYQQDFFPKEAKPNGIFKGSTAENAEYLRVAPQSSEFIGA
T3 sequence (P35968 whole entry): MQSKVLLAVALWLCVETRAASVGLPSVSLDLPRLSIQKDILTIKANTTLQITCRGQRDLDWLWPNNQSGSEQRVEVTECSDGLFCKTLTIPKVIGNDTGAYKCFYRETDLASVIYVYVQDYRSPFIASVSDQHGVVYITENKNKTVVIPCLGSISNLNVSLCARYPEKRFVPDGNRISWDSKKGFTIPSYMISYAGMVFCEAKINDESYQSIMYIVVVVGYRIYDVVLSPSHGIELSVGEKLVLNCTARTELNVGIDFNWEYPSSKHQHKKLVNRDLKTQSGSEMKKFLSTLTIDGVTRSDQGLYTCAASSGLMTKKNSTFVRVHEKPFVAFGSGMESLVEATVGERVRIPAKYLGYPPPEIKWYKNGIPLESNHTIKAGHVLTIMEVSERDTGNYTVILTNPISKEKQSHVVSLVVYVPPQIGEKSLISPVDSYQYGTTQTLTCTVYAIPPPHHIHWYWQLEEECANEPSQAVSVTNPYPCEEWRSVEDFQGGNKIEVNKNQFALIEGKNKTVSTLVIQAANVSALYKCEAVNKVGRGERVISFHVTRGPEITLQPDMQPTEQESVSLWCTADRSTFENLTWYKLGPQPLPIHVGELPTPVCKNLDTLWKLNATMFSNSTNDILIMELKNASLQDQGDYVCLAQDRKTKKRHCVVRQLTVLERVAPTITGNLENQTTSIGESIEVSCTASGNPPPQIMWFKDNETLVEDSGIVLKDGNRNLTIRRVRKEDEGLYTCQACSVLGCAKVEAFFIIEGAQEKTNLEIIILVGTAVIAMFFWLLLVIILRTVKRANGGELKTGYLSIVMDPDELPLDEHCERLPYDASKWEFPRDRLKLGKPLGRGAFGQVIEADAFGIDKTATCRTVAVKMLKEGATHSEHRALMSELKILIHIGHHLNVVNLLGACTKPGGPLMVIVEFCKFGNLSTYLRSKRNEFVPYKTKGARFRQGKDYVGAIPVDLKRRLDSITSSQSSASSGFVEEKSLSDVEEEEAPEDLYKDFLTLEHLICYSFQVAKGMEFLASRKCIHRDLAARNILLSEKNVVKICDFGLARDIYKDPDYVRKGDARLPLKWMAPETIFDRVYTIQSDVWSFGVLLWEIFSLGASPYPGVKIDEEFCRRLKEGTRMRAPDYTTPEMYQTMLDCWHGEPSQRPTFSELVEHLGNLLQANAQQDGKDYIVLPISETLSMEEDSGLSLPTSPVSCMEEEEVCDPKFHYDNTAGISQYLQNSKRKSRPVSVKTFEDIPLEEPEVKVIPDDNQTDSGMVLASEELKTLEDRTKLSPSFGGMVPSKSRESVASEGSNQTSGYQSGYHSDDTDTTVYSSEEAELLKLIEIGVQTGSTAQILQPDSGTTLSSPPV
Epidermal growth factor receptor (Homo sapiens, UniProt P00533, 746-750DEL), sequence (P00533 whole entry, looked up, stated change not applied): as the sequence (P00533 whole entry) above

Compound: C#Cc1cccc(Nc2ncnc3cc(OC)c(OCCCN4CCOCC4)cc23)c1
AUC(0-t) [1]: 6110 ng·h/mL
IC50 (PC-9): 100 nM
IC50 (A-431 [2]): < 100 nM
AUC(0-inf) [3]: 6150 ng·h/mL
MRT last [4]: 3.96 h
IC50 [5]: 1.23 nM

IC50 (cells): > 40000 nM
IC50 (A549 [6]): 6500 nM
IC50 (A-431 [7]): 1290 nM
Compound: C=CC(=O)Nc1cccc(Nc2nc(Nc3ccc(N4CCN(C(C)=O)CC4)cc3OC)ncc2C(F)(F)F)c1 [ROCILETINIB]

IC50 [8]: 1320 nM
IC50 [9]: 640 nM
IC50 (MDA-MB-231 [10]): 500 nM
Compound: CN1C(=O)c2ccc(NC(=O)CSc3nc4cc5ccccc5cc4c(=O)n3-c3ccc(S(N)(=O)=O)cc3)cc2C1=O
Activity (MDA-MB-231 [11]): 0.18 µM

IC50 (HL-60): 410 nM and 2030 nM
IC50 [12]: 200 nM
IC50 [13]: 170 nM
IC50 (HT-29 [14]; Homo sapiens, HT-29, 72 h): 1430 nM
IC50 (K562): 2030 nM
IC50 (MCF7): 1040 nM
IC50 [15]: 390 nM
Compound: NS(=O)(=O)c1ccc(CCn2c(SCC(=O)Nc3ccc(Cl)cc3)nc3ccccc3c2=O)cc1
IC50 (MRC5): 3770 nM

IC50 (A549 [16]): 13300 nM
IC50 (HT-29 [17]): 8850 nM
IC50 (A549 [18]): 11300 nM
IC50 (A549 [19]): 14900 nM
IC50 (HT-29 [20]): 6810 nM
Compound: CS(=O)(=O)CCNCc1ccc(-c2ccc3ncnc(Nc4ccc(OCc5cccc(F)c5)c(Cl)c4)c3c2)o1 [LAPATINIB]

IC50 (HT-29 [14]; Homo sapiens, HT-29, 72 h): 150 nM
IC50 (MDA-MB-231 [21]): 750 nM
IC50 (A549 [6]): 360 nM
IC50 [22]: 93 nM
IC50 (NCI-H460): 89 nM
Compound: Cc1cccc(Cl)c1NC(=O)Nc1ccc(-c2nc(NCCN(C)C)c3ccccc3n2)cc1

IC50 [23]: 9 nM
IC50 (A549 [24]): 105 nM
IC50 [25]: 21 nM
Compound: Cc1ccc(NC(=O)CSc2nc3cc4ccccc4cc3c(=O)n2-c2ccc(S(N)(=O)=O)cc2)cc1

IC50 (CNE): 2100 nM
IC50 (HepG2): 34900 nM
IC50 (A549 [26]): 23300 nM
IC50 (SK-OV-3): 12500 nM
IC50 (MDA-MB-231 [27]): 3200 nM
Compound: Cc1ccc(Nc2ncnc3ccc(NC(=O)c4cc(OCc5ccccc5)c5c(c4)C(=O)c4cccc(OCc6ccccc6)c4C5=O)cc23)cc1
Ratio (A549 [28]): 1.88

IC50 (A549 [16]): 1090 nM
IC50 [12]: 120 nM
IC50 (HT-29 [17]): 1350 nM
IC50 (A549 [18]): 1590 nM
IC50 (HT-29 [20]): 2460 nM
Compound: COc1cc2ncnc(Nc3ccc(OCCn4ccnc4[N+](=O)[O-])c(Cl)c3)c2cc1OCCCN1CCOCC1

IC50 (SW480): 6670 nM
IC50 (A-431 [29]): 2210 nM
IC50 (A549 [19]): 5460 nM
IC50 (NCI-H1975): 9790 nM
Compound: CCN(CC)CCNCc1ccc(-c2ccc3ncnc(Nc4ccc(OCc5cccc(F)c5)c(Cl)c4)c3c2)o1

AUC(0-t) [1]: 7720 ng·h/mL
t1/2 [30]: 0.3752 h
AUC(0-inf) [3]: 7800 ng·h/mL
MRT last [4]: 4.54 h
Vdss [31]: 5.93 L/kg
t1/2 [32]: 3.85 h
Compound: COc1cc2ncnc(Nc3ccc(F)c(Cl)c3)c2cc1OCCCN1CCOCC1 [GEFITINIB]

IC50 (HT-29 [14]; Homo sapiens, HT-29, 72 h): 2500 nM
IC50 (HT-29 [14]; ht-29): 3270 nM
IC50 (MDA-MB-231 [21]): 3810 nM
IC50 (A549 [6]): 4470 nM
IC50 (MCF7): 2500 nM
IC50 (NCI-H460): 2150 nM
Compound: CNC(=O)c1cc(Oc2ccc(NC(=O)Nc3ccc(Cl)c(C(F)(F)F)c3)cc2)ccn1 [SORAFENIB]
IC50 (MRC5): 24100 nM
